Values quoted from earlier work in patent US20250089716A1, “IMMEDIATE-RELEASE PESTICIDE FORMULATION” (priority 2022, published 2025).

Conditions: extender component; unit not given

Compound	Water solubility
[Cl-].[K+] [Potassium chloride]	34 g/100 ml
OC[C@H]1O[C@@](CO)(O[C@H]2O[C@H](CO)[C@@H](O)[C@H](O)[C@H]2O)[C@@H](O)[C@@H]1O [Sucrose]	202 g/100 ml
[Cl-].[Cl-].[Zn+2] [Zinc chloride]	395 g/100 ml

Next, values leading:

Water solubility	Compound
235 g/100 ml	OC[C@@H](O)[C@@H](O)[C@H](O)[C@@H](O)CO [Sorbitol]
100 g/100 ml	NC(N)=O [Urea]
133 g/100 ml	O=C[C@H](O)[C@@H](O)[C@H](O)CO [Xylose]
375 g/100 ml	Flactose
